Publication PMC7905067, “Design and Immunological Evaluation of a Hybrid Peptide as a Potent TLR2 Agonist by Structure-Based Virtual Screening” (Frontiers in Cell and Developmental Biology, 2021)
Like-named read-outs stand apart in the source and are kept apart here.

Key:
RAW264.7 cells = test: In vitro immunomodulatory activity: cytokine secretion by RAW264.7 cells (ELISA); format: cell-based, murine; settings: 10 μg/mL, 12 h, 37°C, ELISA; three independent experiments
Description: RAW264.7 cells were seeded at a density of 1.0 × 10^6 cell/mL and treated with (10 μg/mL) or without peptides in each well of a 6-well plate for 12 h at 37°C in a humidified incubator with 5% CO2. After treatment, TNF-α, IL-6 and IL-1β secretion in the cell supernatants was assessed using ELISA kits according to the manufacturer’s instructions.

TLR2, RAW264.7 cells = test: TLR2 blocking experiment (anti-mouse TLR2 C9A12, then LTPa); format: cell-based; settings: LTPa 10 μg/mL, 24 h; with or without TLR2 mAb (C9A12) 1 h before; ELISA
Description: For TLR2 blocking experiments, RAW264.7 cells were cultured in 24-well plates overnight at 37°C. The mouse IgG2a isotype control antibody or anti-mouse TLR2 (C9A12; InvivoGen, San Diego, CA, United States) was added to the cell cultures 1 h before being treated with LTPa for 24 h at 37°C. Then, the levels of TNF-α, IL-6, and IL-1β in the culture supernatant were analyzed.

[1] = test system: immunoregulatory mediators, proinflammatory cytokines, and chemokines; parameters: method as in 4 sources, ref Scott et al., 2002; Tjabringa et al., 2003; Bowdish et al., 2004 ||| ref Mookherjee et al., 2006; Molhoek et al., 2009 ||| ref Li et al., 2006; Tan et al., 2017 ||| ref Wei et al., 2018; settings: cited from earlier work
TLR2 = settings: cited from earlier work
Text: Therefore, LL-37 could prevent or attenuate immunosuppression.

[2] = ref Anders et al., 2018; cited from earlier work
[3] = cited from earlier work
Text: TP5 plays a vitally important role in the process of immune enhancement.

[4] = test system: CTX-immunosuppressed murine model; test: Body weight and immune organ indices in CTX-immunosuppressed mice; format: in vivo, BALB/c mice; settings: CTX 80 mg/kg i.p. 3 days, peptide 10 mg/kg i.p. days 4-10, n = 12; for bodyweight: CTX group vs control
Description: BALB/c mice (female, 6–8 weeks; Charles River, Beijing, China) used in this study were maintained in a specific-pathogen-free facility (55 ± 10% humidity and 22 ± 1°C) during the experiments. These experiments were conducted with approval from the Institutional Animal Care and Use Committee of China Agricultural University (certificate of the Beijing Laboratory Animal employee, ID: 18086).
(§1) After a 7-day adaptation period, the mice were randomly divided into five groups (n = 12 in each group): (1) control group: physiological saline was injected intraperitoneally once daily; (2) cyclophosphamide (CTX) group: CTX (80 mg/kg mouse weight; Sigma-Aldrich, St. Louis, MO, United States) was injected intraperitoneally once daily for the first 3 days. […] From days 4 to 10, peptide (10 mg/kg mouse weight) was injected intraperitoneally into mice once daily. Twenty-four hours after the last drug administration, all the mice were weighed and then euthanized, and their tissues and blood were collected for further study. The body weight index was calculated according to the formula:
Index(%)=finalbodyweight-initalbodyweight/initialbodyweight×100
The thymus and spleen indices were measured by the following formula:
Index(mg/g)=weightofthymusorspleen/bodyweight

thymic atrophy = test system: thymic atrophy; parameters: method as in Goldstein et al., 1979; Singh et al., 1998; settings: ref Goldstein et al., 1979; Singh et al., 1998; cited from earlier work
[5] = test system: T lymphocyte subpopulations (CD4 +, CD8 +), mouse peripheral blood; test: Peripheral blood T lymphocyte subpopulations by flow cytometry; format: in vivo, BALB/c mice; settings: CTX 80 mg/kg i.p. 3 days; peptide 10 mg/kg i.p. days 4-10; three biological replicates
Description: as §1, with “formula: […]” for “formula:”
Erythrocytes were aseptically obtained from the different groups of mouse peripheral blood and lysed with RBC lysis buffer. The remaining cells were washed with PBS and resuspended in PBS. The cells were combined with peridinin-chlorophyll-protein complex (PerCP)-conjugated anti-mouse CD3 +, allophycocyanin (APC)-conjugated anti-mouse CD4 +, and fluorescein isothiocyanate (FITC)-conjugated anti-mouse CD8 + (BD Pharmingen, United States) for 30 min at 4°C. The T lymphocyte subpopulations were analyzed by flow cytometry.

[6] = test system: serum TNF-α, IL-6, and IL-1β; test: Serum cytokines by ELISA in CTX-treated mice; format: in vivo, BALB/c mice; settings: CTX 80 mg/kg i.p. 3 days, peptide 10 mg/kg i.p. days 4-10, three biological replicates
Description: as §1, with “formula: […]” for “formula:”
(§2) Serum was collected from blood and then assayed by ELISA kits according to the protocol supplied by the manufacturer (eBioscience, San Diego, United States) to determine the secretion of IgG, IgA, IgM, TNF-α, IL-6, and IL-1β.

[7] = test system: TLR2-NF-κB signaling pathway; test: Western blot of TLR2-NF-κB signaling pathway; format: in vivo, BALB/c mice; settings: proteins from serum, three independent experiments
Description: as §1, with “formula: […]” for “formula:”
Whole proteins were extracted from the serum using a whole-protein extraction kit (Nanjing KeyGEN Biotech, Nanjing, China). The protein concentrations were determined with the BCA Assay (KeyGEN Biotech, Nanjing, China) according to the manufacturer’s instructions. Equivalent amounts of protein were separated by SDS-PAGE and blotted onto polyvinylidene fluoride membranes (Bio-Rad). […]

serum IgA, IgG, and IgM = test: Serum immunoglobulins by ELISA in CTX-treated mice; format: in vivo, BALB/c mice; settings: CTX 80 mg/kg i.p. 3 days, peptide 10 mg/kg i.p. days 4-10, three biological replicates
Description: as §1, with “formula: […]” for “formula:”
as §2

[8] = test system: MHC class II, mouse PBMCs; test: DC maturation: MHC-II expression by flow cytometry; format: in vivo, BALB/c mice; settings: CTX 80 mg/kg i.p. 3 days; peptide 10 mg/kg i.p. days 4-10; three biological replicates
Description: as §1, with “formula: […]” for “formula:”
Mouse peripheral blood mononuclear cells (PBMCs) were obtained from the different groups of mice through Ficoll density gradient centrifugation. The cells were resuspended in PBS with 5% FBS and incubated with 10% (v/v) normal goat serum for 15 min at 4°C. The cells were combined with FITC-conjugated antibodies specific for MHC class II (MHC-II; BD Pharmingen, United States). The surface expression of MHC-II was determined by flow cytometry.

RKDVT FKRIVQRIKDFLR [TPLb, hybrid peptide combining TP5 and LL-37b]
IL-1β secretion (RAW264.7 cells): no significant increases | IL-6 secretion (RAW264.7 cells): no significant increases | TNF-α secretion (RAW264.7 cells): no significant increases

TLR2 mAb: anti-mouse TLR2 (C9A12; InvivoGen) [reference compound]
TNF-α, IL-6, and IL-1β production (TLR2, RAW264.7 cells): significantly inhibited the TNF-α, IL-6, and IL-1β production induced by LTPa

RKDVTIGKEFKRIVQRIKDFLRNLVPRTE [TPLa, hybrid peptide combining TP5 and LL-37a]
IL-1β secretion (RAW264.7 cells): no significant increases | IL-6 secretion (RAW264.7 cells): no significant increases | TNF-α secretion (RAW264.7 cells): no significant increases

RKDVTIGKEFKRIVQRIKDFLRNL [TPLc, hybrid peptide combining TP5 and LL-37c]
IL-1β secretion (RAW264.7 cells): no significant increases | IL-6 secretion (RAW264.7 cells): no significant increases | TNF-α secretion (RAW264.7 cells): no significant increases

IGKEFKRIV QRIKDFLRNL [LL-37 (13–31), characteristic fragment of LL-37]
immunoregulatory activity ([1]; ref Wei et al., 2018): robust immunoregulatory activity

LLGDFFRKSKEKIGKEFKRIVQRIKDFLRNLVPRTES [LL-37, human cationic host-defense peptide; parental peptide]
innate immune response by binding to TLR2 (TLR2; ref Mansour et al., 2014, Zhang et al., 2016, Agier et al., 2018): robust innate immune response by binding to TLR2 | cytotoxicity [2]: hampered by its cytotoxicity | half-life ([3]; ref not separately given (sentence cites Anders et al., 2018)): long half-life | bodyweight [4]: improved bodyweight rapidly | production of immunoregulatory mediators, proinflammatory cytokines, and chemokines ([1]; ref Scott et al., 2002, Tjabringa et al., 2003, Bowdish et al., 2004): stimulates the production of various immunoregulatory mediators, proinflammatory cytokines, and chemokines

IGKEFKRIVQRIKDFLRNLRKDVT [LTPc, hybrid peptide combining LL-37c and TP5]
IL-1β secretion (RAW264.7 cells): remarkable increases | IL-6 secretion (RAW264.7 cells): remarkable increases | TNF-α secretion (RAW264.7 cells): remarkable increases

RKDVT [TP5, Thymopentin, Arg32–Tyr36 fragment derived from thymopoietin; parental peptide]
restoration of thymic atrophy (thymic atrophy): able to restore the thymic atrophy induced by immunosuppressants | TLR2 binding (TLR2; ref Li et al., 2013): exert its immunoregulatory activity by binding TLR2 | half-life [3]: short half-life | bodyweight [4]: improved bodyweight rapidly

IGKEFKRIVQRIKDFLRNLVPRTE [LL-37 (13–36), characteristic fragment of LL-37]
immunoregulatory activity ([1]; ref Mookherjee et al., 2006, Molhoek et al., 2009): robust immunoregulatory activity

O=P1(N(CCCl)CCCl)NCCCO1 (centres unmarked) [CTX, cyclophosphamide, reference compound]
proportions of CD4 + and CD8 + T lymphocytes [5]: remarkably reduced the proportions of CD4 + and CD8 + T lymphocytes | serum IL-1β level [6]: significantly decreased | serum IL-6 level [6]: significantly decreased | serum TNF-α level [6]: significantly decreased | spleen index [4]: significantly decreased | thymus index [4]: significantly decreased | bodyweight [4]: significant decrease in the bodyweight | expression levels of TLR2, MyD88, and TRAF6 [7]: significantly decreased the expression levels of TLR2, MyD88, and TRAF6 | phosphorylation of IKK-β, IκB-α, and NF-κB [7]: significantly decreased | serum IgA level (serum IgA, IgG, and IgM): significantly reduced | serum IgG level (serum IgA, IgG, and IgM): significantly reduced | serum IgM level (serum IgA, IgG, and IgM): significantly reduced | expression of MHC-II [8]: significantly decreased

FKRIVQRIKDFLRRKDVT [LTPb, hybrid peptide combining LL-37b and TP5]
IL-1β secretion (RAW264.7 cells): remarkable increases | IL-6 secretion (RAW264.7 cells): remarkable increases | TNF-α secretion (RAW264.7 cells): remarkable increases

FKRIVQRI KDFLR [LL-37 (17–29), characteristic fragment of LL-37]
immunoregulatory activity ([1]; ref Li et al., 2006, Tan et al., 2017): robust immunoregulatory activity
